Values joined by “and” are separate entries in the source; they are usually repeats but may differ in a detail not shown here. Equal entries are not always repeated.
B1: Ebola virus nucleoprotein, residues 36-450 (EBOV NP 36-450) (domain or fragment)
chain: VRQRVIPVYQVNNLEEICQLIIQAFEAGVDFQESADSFLLMLCLHHAYQGDYKLFLESGAVKYLEGHGFRFEVKKRDGVKRLEELLPAVSSGKNIKRTLAAMPEEETTEANAGQFLSFASLFLPKLVVGEKACLEKVQRQIQVHAEQGLIQYPTAWQSVGHMMVIFRLMRTNFLIKFLLIHQGMHMVAGHDANDAVISNSVAQARFSGLLIVKTVLDHILQKTERGVRLHPLARTAKVKNEVNSFKAALSSLAKHGEYAPFARLLNLSGVNNLEHGLFPQLSAIALGVATAHGSTLAGVNVGEQYQQLREAATEAEKQLQQYAESRELDHLGLDDQEKKILMNFHQKKNEISFQQTNAMVTLRKERLAKLTEAITAASLPKTSGHYDDDDDIPFPGPINDDDNPGHQDDDPTDSQ
B2: Marburg virus nucleoprotein core domain (MARV NP, amino acids 19-370) (domain or fragment)
chain: RNKKVILFDTNHQVSICNQIIDAINSGIDLGDLLEGGLLTLCVEHYYNSDKDKFNTSPVAKYLRDAGYEFDVIKNADATRFLDVSPNEPHYSPLILALKTLESTESQRGRIGLFLSFCSLFLPKLVVGDRASIEKALRQVTVHQEQGIVTYPNHWLTTGHMKVIFGILRSSFILKFVLIHQGVNLVTGHDAYDSIISNSVGQTRFSGLLIVKTVLEFILQKTDSGVTLHPLVRTSKVKNEVASFKQALSNLARHGEYAPFARVLNLSGINNLEHGLYPQLSAIALGVATAHGSTLAGVNVGEQYQQLREAAHDAEVKLQRRHEHQEIQAIAEDDEERKILEQFHLQKTEITH

Columns and labels:
[1] = biological target: T1, EBOV NP (amino acids 36–351) (Zaire ebolavirus, UniProt P18272); format: binding, Ebola virus
[2] = biological target: T2, MARV NP (amino acids 19–370) (Lake Victoria marburgvirus, UniProt P27588); format: binding, Marburg virus
EBOV NP [3] = biological target: T3, EBOV NP (Zaire ebolavirus, UniProt P18272); format: binding, Ebola virus
MARV NP [4] = biological target: T4, MARV NP (Lake Victoria marburgvirus, UniProt P27588); format: binding, Marburg virus
EBOV NP [5] = biological target: T3, EBOV NP; format: binding, Ebola virus; remark: listed apart in the source
MARV NP [6] = biological target: T4, MARV NP; format: binding, Marburg virus; remark: listed apart in the source
[7] = biological target: EBOV NP (residues 36–351) (Zaire ebolavirus, UniProt P18272); format: biochemical, Ebola virus
[8] = biological target: MARV NP (residues 19–370) (Lake Victoria marburgvirus, UniProt P27588); format: biochemical, Marburg virus
[9] = biological target: T1, EBOV NP (amino acids 36–351); format: binding, Ebola virus; remark: listed apart in the source
[10] = biological target: T2, MARV NP (amino acids 19–370); format: binding, Marburg virus; remark: listed apart in the source
[11] = biological target: oligomeric EBOV NP 36–450 / ssRNA (Zaire ebolavirus, UniProt P18272); test: biochemical
[12] = biological target: T1, EBOV NP (amino acids 36–351); format: binding, Ebola virus; remark: listed apart in the source
[13] = biological target: T2, MARV NP (amino acids 19–370); format: binding, Marburg virus; remark: listed apart in the source
SEC = biological target: the molecule itself; test: SEC
SEC-MALS = biological target: the molecule itself; test: SEC-MALS

Molecule	S/N ratio (peak intensity protein incubation sample vs control) [1]	S/N ratio (peak intensity protein incubation sample vs control) [2]	Corr response (SPR) (EBOV NP [3])	Corr response (SPR) (MARV NP [4])	△Tm (EBOV NP [5])	△Tm (MARV NP [6])	further results
O=C1C[C@@H](c2ccc(O)cc2)Oc2cc(O[C@@H]3O[C@H](CO)[C@@H](O)[C@H](O)[C@H]3O)ccc21 [GC2, Neoliquiritin]	1.31±0.27	1.87±0.38	2.0 RU	1.1 RU	0.0 ± 0.0 °C	0.2 ± 0.3 °C	Monomer (%) [7]: 100%; Monomer (%) [8]: 66.3%; Oligomer(%) >1000 kDa [8]: 4.0%; Tetramer (%) [8]: 29.7%
O=c1cc(-c2ccc(O)cc2)oc2c([C@@H]3OC[C@H](O)[C@H](O)[C@H]3O)c(O)c([C@@H]3O[C@H](CO)[C@@H](O)[C@H](O)[C@H]3O)c(O)c12 [GC3, Schaftoside]	1.47±0.30	1.67±0.31	2.9 RU	2.8 RU	−0.6 ± 0.1 °C	−0.4 ± 0.3 °C	
O=C(/C=C/c1ccc(O)cc1)c1ccc(O[C@@H]2O[C@H](CO)[C@@H](O)[C@H](O)[C@H]2O)cc1O [GC4, Neoisoliquiritin]	1.46±0.29	1.59±0.41			0.1 ± 0.2 °C	0.2 ± 0.3 °C	
COc1ccc(-c2coc3cc(O[C@@H]4O[C@H](CO)[C@@H](O)[C@H](O)[C@H]4O)ccc3c2=O)cc1 [GC5, Ononin]	1.34±0.31	1.18±0.43			−0.2 ± 0.3 °C	0.0 ± 0.5 °C	
CC1(C)[C@@H](O[C@H]2O[C@H](C(=O)O)[C@@H](O)[C@H](O)[C@H]2O[C@@H]2O[C@H](C(=O)O)[C@@H](O)[C@H](O)[C@H]2O)CC[C@]2(C)[C@H]3C(=O)C=C4[C@@H]5C[C@@](C)(C(=O)O)CC[C@]5(C)CC[C@@]4(C)[C@]3(C)CC[C@@H]12 [GC6, Glycyrrhizin]	1.84±0.12	1.46±0.73			0.1 ± 0.2 °C	−0.2 ± 0.3 °C	
CC1(C(=O)O)CCC2(C)CCC3(C)C(=CC(=O)C4C5(C)CCC(O)C(C)(C)C5CCC43C)C2C1 (stereo not drawn) [GC7, 18β-Glycyrrhetinic acid]	2.62±0.46	2.79±0.34	128 RU	35.8 RU	−9.2 ± 0.4 °C	−1.1 ± 0.1 °C	BF% (fraction of compound associated with the NP protein) [9]: 11.0% ± 1.1%; S/N [9]: 2.7 ± 0.3; BF% (fraction of compound associated with the NP protein) [10]: 16.9% ± 4.1%; S/N [10]: 2.3 ± 0.4; decrease of the protein melting temperature (EBOV NP [5]): 9 °C; Oligomer(%) <1000 kDa [7]: 68.7%; Monomer (%) [8]: 71.0% and 84.5%; Oligomer(%) >1000 kDa [8]: 6.2% and 6.9%; IC50 [11]: ~160 µM
O=C1C[C@@H](c2ccc(O)cc2)Oc2cc(O)ccc21 [GC8, Liquiritigenin]	0.96±0.22	1.28±0.18					
COc1ccc(-c2coc3cc(O)ccc3c2=O)cc1O [GC9, Calycosin]	1.21±0.25	1.60±0.36					
CC1(C)[C@@H](O)CC[C@]2(C)[C@H]3C(=O)C=C4[C@H]5C[C@@](C)(C(=O)O)CC[C@]5(C)CC[C@@]4(C)[C@]3(C)CC[C@@H]12 [GC10, 18α-Glycyrrhetinic acid]	2.62±0.46	2.79±0.34	8.8 RU	5.2 RU	−0.8 ± 0.4 °C	−0.2 ± 0.3 °C	BF% (fraction of compound associated with the NP protein) [9]: 0.1% ± 0.0%; S/N [9]: 1.2 ± 0.1; BF% (fraction of compound associated with the NP protein) [10]: 0.9% ± 0.5%; S/N [10]: 1.8 ± 0.1; Monomer (%) [7]: 64.0%; Oligomer(%) >1000 kDa [7]: 36.0%; Monomer (%) [8]: 63.3%; Oligomer(%) >1000 kDa [8]: 0.5%; Tetramer (%) [8]: 36.2%
O=C(/C=C/c1ccc(O)cc1)c1ccc(O)cc1O [GC11, Isoliquiritigenin]	1.11±0.16	1.08±0.04					
O=C1C[C@@H](c2ccc(O[C@@H]3O[C@H](CO)[C@@H](O)[C@H](O)[C@H]3O)cc2)Oc2cc(O)ccc21 [GC12, Liquiritin]	1.31±0.27	1.87±0.38					
C=CC(C)(C)c1cc(/C=C/C(=O)c2ccc(O)cc2)c(OC)cc1O [GC13, Licochalcone A]	5.61±1.11	6.54±0.52	43.8 RU	29.2 RU	−3.2 ± 0.3 °C	0.7 ± 0.6 °C	BF% (fraction of compound associated with the NP protein) [9]: 0.3% ± 0.0%; S/N [9]: 6.0 ± 1.3; BF% (fraction of compound associated with the NP protein) [10]: 0.1% ± 0.1%; S/N [10]: 11.0 ± 1.9; Monomer (%) [7]: 100%; Monomer (%) [8]: 29.0%; Oligomer(%) >1000 kDa [8]: 2.6%; Tetramer (%) [8]: 68.3%; increase of tetramer formation [8]: > 2 fold
O=C(/C=C/c1ccc(O[C@@H]2O[C@H](CO)[C@@H](O)[C@H](O)[C@H]2O)cc1)c1ccc(O)cc1O [GC14, Isoliquiritin]	0.49±0.02	1.61±0.19					
Liquiritin apioside [GC1]	1.37±0.28	1.85±0.35	3.1 RU	2.0 RU	−0.5 ± 0.2 °C	−0.2 ± 0.3 °C	S/N AVE [12]: 1.07; VIP [12]: 2.03; S/N AVE [13]: 1.53; VIP [13]: 5.68
B1							binding result (SEC): binds
B2							stoichiometry N (SEC-MALS): 4

Reference: article PMC4940736 (Scientific Reports, 2016)
